Data set [1] is described as follows: Moisture sorption isotherms (VTI MB300G moisture balance). The class given is physicochemical. The note with it: 25° C.; for desorption to original weight %: decreasing RH. The method, then:
Moisture Sorption Isotherms of hygroscopic and non-hygroscopic crystalline forms of N-[N-[N-(4-piperdin-4-yl)butanoyl)-N-ethylglycyl]-(L)-aspartyl]-(L)-β-cyclohexylalanine amide are obtained on a VTI MB300G moisture balance. The experiments are conducted either by subjecting approximately 15 mg of the subject crystalline form to increasing and decreasing steps of % RH and following the weight gain (at each equilibrium step) as a function of % RH (FIG. 9) or by holding the subject crystalline form at constant humidity and following the weight gain as a function of time.

A short description of data set [2]: Isothermal microcalorimetry of solid state form conversion (Thermal Activity Monitor). The class given is physicochemical. The note with it: for thermal activity (form conversion) on exposure to humidity: 80% RH (saturated KCl solution), over 30 hours; for time for conversion of hygroscopic to non-hygroscopic form: 80% RH. The protocol:
Isothermal microcalorimetry experiments on hygroscopic and non-hygroscopic crystalline forms of N-[N-[N-(4-piperdin-4-yl)butanoyl)-N-ethylglycyl]-(L)-aspartyl]-(L)-β-cyclohexylalanine amide are performed on a Thermometric® Thermal Activity Monitor (TAM). Solid state conversions of the different chrystalline forms are studied by exposing the forms to different humidities or solvent vapors at different temperatures. The saturated salt solutions used to obtain different humidities were: KCl (80% RH), NaCl (75% RH), and NaBr (65% RH). Approximately 100 mg quantities of the forms are weighed into a TAM glass ampule and a microhygrostate containing a saturated salt solution (with excess solid) or an organic solvent is placed inside the ampule. The ampule is sealed, equilibrated to the temperature of the experiment, and lowered into the measuring position in the TAM. An identical system containing washed sea sand, in place of the form subject to testing, is placed on the reference side. Output power (μW) is measured as a function of time (FIGS. 6-8).

Data set [3] deals with ADP-induced platelet aggregation in platelet rich plasma. Put plainly: Inhibition of ADP-Induced ex-vivo Platelet Aggregation after oral administration. The settings on record: dog, 5 mg/kg; for % Inhibition of ex-vivo Platelet Aggregation After Oral Administration, 1 h: 1 h after dosing; for % Inhibition of ex-vivo Platelet Aggregation After Oral Administration, 3 h: 3 h after dosing. The class given is in vivo, mongrel dogs. The text has this: (§1) The Platelet Aggregation Assay is based on that described in Blood 66 (4), 946-952 (1985). The Fibrinogen-Binding Assay is essentially that of Ruggeri, Z. M., et al., Proc. Nail. Acad. Sci. USA 83, 5708-5712 (1986) and Plow, E. F., et al., Proc. Natl. Acad Sci., USA 82, 8057-8061 (1985). The Inhibition of ADP-lndticed ex-vivo Platelet Aggregation assay is based on that of Zucker, “Platelet Aggregation Measured by the Photoelectric Method”, Methods in Enzymology 169, 117-133 (1989).
Control blood samples are obtained 5-10 minutes prior to administration of a test compound in mongrel dogs weighing from 10 to 20 Kg. The compound is administered intragasticly, via aqueous gavage, or orally, via gelatin capsule. Blood samples (5 ml) are then obtained at 30 minute intervals for 3 hours, and at 6, 12, and 24 hours after dosing. Each blood sample is obtained by venipuncture of the cephalic vein and is collected directly into a plastic syringe containing one part 3.8% trisodium citrate to nine parts blood.
The blood samples are centrifuged at 1000 rpm for 10 minutes to obtain platelet rich plasma (PRP). After removal of the PRP, the sample is centrifuged for an additional 10 minutes at 2000 rpm to obtain platelet poor plasma (PPP). Platelet count in the PRP is determined by using a Coulter Counter (Coulter Electronics, Hialeah, Fla.). If the concentration of platelets in the PRP is greater than 300,000 platelets/μL, then the PRP is diluted with PPP to adjust the platelet count to 300,000 platelets/μL. Aliquots of PRP (250 μL) are then placed in siliconized glass cuvettes (7.25×55 mm, Bio/Data Corp., Horsham, Pa.). Epinephrine (final concentration of 1 μM) is then added to the PRP, which is incubated for one minute at 37° C. A stimulator of platelet aggregation ADP at a final concentration of 10 μM, is then added to the PRP. Platelet aggregation is monitored spectrophotometrically utilizing a light transmission aggregometer (Bio/Data Platelet Aggregation Profiler, Model PAP-4, Bio/Data Corp., Horsham, Pa.). For the testing of a compound, the rate of change (slope) of light transmittance and the maximum light transmittance (maximum aggregation) is recorded in duplicate. Platelet aggregation data are reported as the percent decrease (mean±SEM) in slope or maximum aggregation as compared to data obtained from control PRP, which is prepared from blood samples obtained prior to administration of the test compound.

Data set [4] has as its system fixed activated platelets. Put plainly: Platelet Aggregation Assay (fixed-activated platelets, aggregation initiated by human fibrinogen). The settings on record: human fibrinogen 250 μg/mL, read-out: Inhibition of Fixed Platelet Aggregation (IC50 μM). In kind it is cell-based.
Description: as §1
Platelets are isolated from human platelet concentrates using the gel-filtration technique as described by Marguerie, G. A. et al., J. Biol. Chem. 254, 5357-5363 (1979) and Ruggeri, Z. M. et al., J. Clin. Invest. 72, 1-12 (1983). The platelets are suspended at a concentration of 2×10^8 cells/mL in a modified calcium-free Tyrode's buffer containing 127 mM sodium chloride, 2 mM magnesium chloride, 0.42 mM Na2HPO4, 11.9 mM NaHCO3, 2.9 mM KCl, 5.5 mM glucose, 10 mM HEPES, at a pH of 7.35 and 0.35% human serum albumin (HSA). […]
The fixed activated platelets are incubated with a selected dose of the compound to be tested for platelet aggregation inhibition for one minute andfaggregation initiated by addition of human fibrinogen to a final concentration of 250 μg/mL. […] The extent of inhibition of aggregation is expressed as the percentage of the rate of aggregation observed in the absence of inhibitor. […]

Data set [5] in a line: Hygroscopicity and physical stability of the material prepared according to WO95/10295 (statement). The class given is physicochemical.

Read-outs that look alike come from different tables or passages of the source.

Turning to `CCN(CC(=O)N[C@@H](CC(=O)O)C(=O)N[C@@H](CC1CCCCC1)C(N)=O)C(=O)CCCC1CCNCC1` [hygroscopic crystalline form], the “desorption to original weight %” value in data set [1] (listed as hygroscopic form) was “does not desorb to its original weight %”. The “% weight gain vs. % RH (water uptake)” value in data set [1] (increasing RH, more pronounced above 60% RH) is on record as “picks up more water than the non-hygroscopic form as the RH increases”. Also, the “effect of relative humidity on rate of conversion to non-hygroscopic form” value in data set [2] (60° C., 65% RH, 75% RH, 80% RH and 100% RH) is “higher relative humidities produce a faster conversion”. For the same compound, in data set [2] (40° C., listed as hygroscopic form), the “thermal activity (form conversion) on exposure to humidity” value is on record as “strong exothermic event takes place”. Further, the figures for the “time for conversion of hygroscopic to non-hygroscopic form” value in data set [2] (40° C.), in data set [2] (50° C.) and in data set [2] (60° C.) were “approximately 24 hours”, about 6.5 h and about 3 h, respectively. Besides, the liquification during conversion result in data set [2] (100% RH, 60° C.) is “without the liquification”. The “thermal activity (form conversion) on exposure to methanol vapors” value in data set [2] (methanol vapors, 40° C.) is listed as “no exothermic conversion event takes place”.

On to `CCN(CC(=O)N[C@@H](CC(=O)O)C(=O)N[C@@H](CC1CCCCC1)C(N)=O)C(=O)CCCC1CCNCC1` [non-hygroscopic form], for which the “desorption to original weight %” value in data set [1] is “does desorb to its original weight %”. Also, the “thermal activity (form conversion) on exposure to humidity” value in data set [2] (40° C.) is “no exothermic conversion event takes place”.

On to `CCN(CC(=O)N[C@@H](CC(=O)O)C(=O)N[C@@H](CC1CCCCC1)C(N)=O)C(=O)CCCC1CCNCC1` [Example 15], for which, in data set [3], the “% Inhibition of ex-vivo Platelet Aggregation After Oral Administration, 1 h” value was found to be 100% and the “% Inhibition of ex-vivo Platelet Aggregation After Oral Administration, 3 h” value amounted to 100%. In addition, the “% Inhibition of ex-vivo Platelet Aggregation After Oral Administration, 6 h” value in data set [3] (6 h after dosing) was 100%. Further, in data set [3] (12 h after dosing), the “% Inhibition of ex-vivo Platelet Aggregation After Oral Administration, 12 h” value came to 98%. In addition, in data set [3] (24 h after dosing), the “% Inhibition of ex-vivo Platelet Aggregation After Oral Administration, 24 h” value came to 50%. Besides, the half-maximal inhibitory concentration (IC50) in data set [4] (Platelet) amounted to 0.097 µM.

Turning to `CCN(CC(=O)N[C@@H](CC(=O)O)C(=O)N[C@@H](CC1CCCCC1)C(N)=O)C(=O)CCCC1CCNCC1` [N-[N-[N-(4-(piperdin-4-yl)butanoyl)-N-ethylglycyl]-(L)-aspartyl]-(L)-β-cyclohexylalanine amide], in data set [5], the “hygroscopicity and physical stability” value is “hygroscopic and is physically unstable as it absorbs moisture”.

With `O=C(O)C[C@H](NC(=O)CNC(=O)CCCC1CCNCC1)C(=O)N[C@@H](Cc1c[nH]c2ccccc12)C(=O)O` [Compound of EPA ‘481, 4-4(piperidyl)butanoyl glycyl aspartyl tryptophan, reference compound], in data set [3], the “% Inhibition of ex-vivo Platelet Aggregation After Oral Administration, 1 h” value is recorded as 53% and the “% Inhibition of ex-vivo Platelet Aggregation After Oral Administration, 3 h” value was under 20%. The IC50 in data set [4] turned out to be 0.047 µM.

The record behind these values is US6753409B1, “STABLE NON-HYGROSCOPIC CRYSTALLINE FORM OF N-[N-[N-(4-(PIPERIDIN-4-YL)BUTANOYL)-N-ETHYLGLYCYL]ASPARTYL]-L-β-CYCLOHEXYL ALANINE AMIDE, INTERMEDIATES THEREOF, AND PREPARATION THEREOF AND OF ANTITHROMBOTIC AZACYCLOALKYLALKANOYL PEPTIDES AND PSEUDOPEPTIDES” (Aventis Pharmaceuticals Inc., priority 1996, dated 2004).
